Like-named read-outs stand apart in the source and are kept apart here.

Here are results for 9 molecules from patent publication US20240208895A1, “BRANCHED-CHAIN AMINO ACID DERIVATIVES TO TREAT DISEASE” (INTRABIO LTD., priority 2021, published 2024).

For one data set, the target named is T1, human transporter MCT1 (Homo sapiens, UniProt P53985).
T1 construct: expressed in transfected cells; host or cells: MDCK-II
T1 sequence (P53985 1-500): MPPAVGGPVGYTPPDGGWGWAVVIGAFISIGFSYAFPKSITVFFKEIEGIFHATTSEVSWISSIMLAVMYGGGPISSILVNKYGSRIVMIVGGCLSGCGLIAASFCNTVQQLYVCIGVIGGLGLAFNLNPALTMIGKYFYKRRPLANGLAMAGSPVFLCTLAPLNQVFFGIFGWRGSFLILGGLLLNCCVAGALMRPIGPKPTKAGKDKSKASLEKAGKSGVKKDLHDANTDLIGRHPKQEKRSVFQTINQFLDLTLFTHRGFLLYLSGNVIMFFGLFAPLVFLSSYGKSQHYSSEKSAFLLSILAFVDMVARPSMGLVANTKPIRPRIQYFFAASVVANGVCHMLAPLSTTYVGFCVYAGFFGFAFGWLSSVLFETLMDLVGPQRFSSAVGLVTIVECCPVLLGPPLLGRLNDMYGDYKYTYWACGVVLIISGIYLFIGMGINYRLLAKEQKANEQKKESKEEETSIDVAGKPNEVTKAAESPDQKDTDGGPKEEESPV
The data set can be described thus: Human MCT1-mediated transport in MDCK-II cells (Example 9). Type of data set: cell-based. The note with it: MDCK-II cells expressing human MCT1, pH 5.5, 1 minute, normalized to Vmax of thiophene-2-glyoxylic acid. The method, then:
Representative Compounds of the Disclosure are tested in (i) MDCK-II cells expressing human transporter MCT1; and (ii) MDCK-II cells transfected with a control vector (GFP) as control cells for human transporter MCT1. 2-Thiophene-glyoxylic acid (TPGA) is the positive control for transport.
• 1. A stock solution is prepared with the test article (Compound of the Disclosure) in DMSO or in HBSS-Bis-Tris. • 2. Final assay solutions of probe substrate or test article contain 0.5% (v/v) DMSO (vehicle control). • 3. Test article concentrations are 10 μM, 30 μM, 100 μM, 300 μM, 1000 μM, 3000 μM, and 10000 μM.
MDCK-II cells are maintained in DMEM with low glucose and 10% FBS. Cells passages up to 40 are seeded at 60K±10K cells/well on 96-well, transwell membrane plates approximately 24 hours before transfection. Transport assays are carried out approximately 48 hours after transfection.
• 1. Test system: • a. Test system: 96-well cell culture plate with wells containing a monolayer of MDCK-II cells grown on a permeable support and a corresponding 96-well receiver tray. Cell plates are maintained at 37° C. in 5% CO2 atmosphere prior to initiation of the transport experiment. • b. Pre-incubation is conducted in HBSS, pH 7.4. Transport experiments are conducted in HBSS with Bis-Tris, pH 5.5, without phenol red. Pre-incubation and incubation are conducted at ambient temperatures. • c. Each condition is run in triplicate wells. • d. […] The result from the control cells is used to correct for substrate permeation by routes other than the transporter being investigated in the study. • 2. Prepare the 96-well plate as follows: • a. Wash the basal side of the culture plate insert with HBSS three times. After the final wash, blot the basal side of the wells and keep this side dry. • b. Wash the culture plate wells with HBSS three times. The wells of the culture plate serve as the apical compartment. • 3. Aspirate the final wash from the culture plate. The wells of the culture plate serve as the apical compartment. Add 100 μL of HBSS pH 7.4 pre-incubation buffer containing vehicle to the apical compartments. • 4. Incubate the plates with orbital shaking at approximately 60 RPM for the pre-incubation time specified in Table 1 of this protocol. • 5. Aspirate the pre-incubation buffer from the apical compartment of the plates. Add 100 μL of the experimental buffer that is prepared as follows and maintained at ambient temperatures. • a. For the probe substrate transport assay, the HBSS with Bis-Tris, pH 5.5 in each well contains the probe substrate at 500 μM (positive control for transport) and vehicle control. • b. For the test article assays, the HBSS with Bis-Tris, pH 5.5 in each well contains the test article at 10 μM, 30 μM, 100 μM, 300 μM, 1000 μM, 3000 μM, and 10000 μM. • 6. Incubate at ambient temperature with orbital shaking at approximately 60 RPM for the incubation time of 1 minute. • 7. […]
• 1. The amount of radiolabeled probe substrate will be quantified with radiometric detection on a 1450 Microbeta (Perkin-Elmer). • 2. The amount of non-radiolabeled probe substrate or test article will be quantified by LC-MS/MS. • 3. […] For uptake assays, the net transporter-mediated uptake rate (V) of the substrate by each SLC transporter will be calculated as follows:
[formula] • 5. For transport kinetics assessment, Km and Vmax will be calculated by non-linear regression using the Michaelis-Menten equation. • 6. […]

The target in the next data set is T2, LAT1 (Homo sapiens, UniProt Q01650).
T2 construct: expressed in transfected cells
T2 sequence (Q01650 whole entry): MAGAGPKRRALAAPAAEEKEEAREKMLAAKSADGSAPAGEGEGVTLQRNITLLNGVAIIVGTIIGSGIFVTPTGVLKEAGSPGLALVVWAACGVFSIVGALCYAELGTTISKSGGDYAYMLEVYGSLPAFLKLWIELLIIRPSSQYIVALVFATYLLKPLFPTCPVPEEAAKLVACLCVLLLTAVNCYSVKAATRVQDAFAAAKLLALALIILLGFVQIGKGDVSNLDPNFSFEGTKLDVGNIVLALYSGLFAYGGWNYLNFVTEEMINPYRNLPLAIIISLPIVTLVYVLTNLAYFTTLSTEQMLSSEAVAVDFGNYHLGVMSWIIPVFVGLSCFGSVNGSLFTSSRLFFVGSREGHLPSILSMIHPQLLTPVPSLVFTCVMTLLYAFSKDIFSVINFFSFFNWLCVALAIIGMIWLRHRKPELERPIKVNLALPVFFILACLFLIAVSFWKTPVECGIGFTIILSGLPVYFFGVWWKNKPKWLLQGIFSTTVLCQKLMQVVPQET
T2 sequence (P08195 102-630 partner): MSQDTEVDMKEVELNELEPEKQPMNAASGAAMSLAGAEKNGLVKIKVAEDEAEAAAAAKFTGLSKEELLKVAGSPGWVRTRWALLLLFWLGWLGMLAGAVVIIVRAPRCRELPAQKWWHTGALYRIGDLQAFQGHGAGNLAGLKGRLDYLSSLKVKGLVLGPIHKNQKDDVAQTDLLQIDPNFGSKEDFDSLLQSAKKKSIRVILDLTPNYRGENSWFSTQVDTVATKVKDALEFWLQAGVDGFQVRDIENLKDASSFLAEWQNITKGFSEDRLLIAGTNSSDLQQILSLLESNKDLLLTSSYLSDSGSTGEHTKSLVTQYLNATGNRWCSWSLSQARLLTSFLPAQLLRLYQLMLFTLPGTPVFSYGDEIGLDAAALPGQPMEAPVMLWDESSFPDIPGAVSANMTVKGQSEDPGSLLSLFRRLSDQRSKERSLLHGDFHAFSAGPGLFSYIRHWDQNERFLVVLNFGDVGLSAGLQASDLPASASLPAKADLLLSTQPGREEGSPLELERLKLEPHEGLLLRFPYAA
Briefly: LAT1 transporter-mediated cellular uptake (substrate test). Type of data set: cell-based. The settings on record: uptake 3 min, 37° C. The method, then:
DMSO (0.5%) was the solvent control (SC) and the known inhibitor for the positive control (PC) was JPH203 (10 μM). Data were fit to either the Michaelis-Menten equation for uptake or the Hill equation for inhibition using the solvent control to define the top and the positive control inhibitor to define the bottom. Symbols represent the mean±SEM, n=3.
Human OAT1 (SLC22A6) and OAT3 (SLC22A8) overexpressing HEK-293 cells and control cells without transfected transporter (Corning® TransportoCells™) are plated to 24-well plates and cellular uptake of 10 to 100 μg/mL of a Compound of the Disclosure is measured in the absence and presence of transporter inhibitors. Uptake of a Compound of the Disclosure into control cells is measured only without chemical inhibitors. […] Cells are grown in DMEM (Gibco 4196, high glucose, without sodium pyruvate) supplemented with MEM non-essential amino acids and 10% fetal bovine serum. Cells are re-fed with fresh medium after attachment (4-6 hours post-seeding). Cell are plated at a density of 4×10^5/well in 24-well plates coated with poly-D-lysine. Transporter assays are conducted in 400 μL of HBSS supplemented with 10 mM Hepes, pH 7.4
The known probe substrates used as positive controls are 3 μM chlorothiazide for OAT1, 2 μM estrone-3-sulfate for OAT3, 10 μM gabapentin for LAT1, 50 μM Gly-Sar for PepT1, 500 μM thiophene-2-glyoxylic acid for MCT1. […]

In data set [1] the test system is glycosphingolipid (GSL) biosynthesis. The note with it: LSDs; cited from earlier work.
In data set [2] the target is T3, monocarboxylate transporter (MCT1) (Homo sapiens, UniProt P53985).
T3 sequence (P53985 1-500): T1 sequence (P53985 1-500)
Briefly: Inhibition of MCT1 uptake of known substrate 2-thiophene glyoxylate. Type of data set: cell-based. Also on record: expressed in transfected cells. The procedure:
FIG. 4(c) is a line graph showing concentration-inhibition curves for the inhibition of uptake of the known substrate 2-thiophene glyoxylate (500 μM) for MCT1. DMSO (0.5%) was the solvent control (SC) and the known inhibitor phloretin (500 μM) was the positive control (PC).
FIG. 4(d) is a line graph showing concentration-inhibition curves for the inhibition of uptake of the known substrate 2-thiophene glyoxylate (500 μM) for MCT1. DMSO (0.5%) was the solvent control (SC) and the known inhibitor phloretin (500 μM) was the positive control (PC).
The known probe substrates used as positive controls are 3 μM chlorothiazide for OAT1, 2 μM estrone-3-sulfate for OAT3, 10 μM gabapentin for LAT1, 50 μM Gly-Sar for PepT1, 500 μM thiophene-2-glyoxylic acid for MCT1.
The IC50 value for the test item is determined by fitting the Hill equation in the following form:
where A % is the percent activity remaining (the mean cellular uptake observed in the solvent control sample set to 100% and the mean cellular uptake observed in the presence of the positive control inhibitor set to 0%), Top and Bottom are the upper and lower plateau of A %. [I] is the inhibitor concentration and IC50 is the inhibitor concentration where the remaining activity is at the midpoint between the Top and Bottom.

How the values of data set [3] were obtained: (§1) A Compound of the Disclosure is incubated at 1 μM, 10 μM and 100 μM with pooled liver S9 fractions from human (mixed gender) and mouse (CD1) at 1.5 mg/mL in 300 μL buffer containing phosphate 100 mM, MgCl2 2 mM, pH 7.4 at 37° C. for 0, 10, 20, 40, 60 min.
(§2) Enzyme kinetic data for uptake and metabolism of a Compound of the Disclosure is analysed by fitting the Michaelis-Menten equation to the data. V0=Vmax[S]/Km+[S], where V0 is initial velocity, [S] is substrate concentration, Vmax is maximum velocity and Km is substrate concentration at half Vmax. All fitting is performed using GraphPad Prism 8.4 software (GraphPad Software Inc). No weighting scheme is applied.

How the values of data set [4] were obtained: as §1, §2
This is another data set of the same source.

Substrate in data set [5]: CC(=O)N[C@H](CC(C)C)C(=O)O
The data set can be described thus: cells, lysate or membranes. The settings on record: other: uptake 1 min, room temperature.

As for `COC(=O)[C@H](CC(C)C)NC(C)=O` [N-acetyl-L-leucine methyl ester], at human transporter MCT1, the “uptake mediated by MCT1” value is listed as “greatly reduced transport”.
As to `CC(=O)N[C@@H](CC(C)C)C(=O)O` [N-acetyl-leucine], the “substrate of LAT1 (uptake)” value at LAT1 is “neither a substrate”.
In the case of `CCCCN1C[C@H](O)[C@@H](O)[C@H](O)[C@H]1CO` [miglustat], the “benefit in clinical trial of substrate reduction therapy” value in data set [1] is on record as “Some benefit”.
As to `CC(=O)N[C@H](CC(C)C)C(=O)O` [N-acetyl-D-leucine], the Ki in data set [2] (assuming competitive inhibition, read-out: affinity (Ki) for MCT1, Cheng-Prusoff equation) was determined as 1.6 mM. Further, in data set [2] (probe substrate 2-thiophene glyoxylate 500 μM), 11 mM corresponded to half-maximal inhibition (IC50).
On to `[2H]C([2H])([2H])C([2H])(C([2H])([2H])[2H])C([2H])([2H])C([2H])(NC(C)=O)C(=O)O` (racemic) [N-acetyl-DL-[^2H10]leucine], for which the figures for the “Vmax, metabolism” value in data set [3] and in data set [4] were 6.8 µmol/min/mg and 2.6 µmol/min/mg, respectively. The “disappearance, asymptote as % of the initial concentration” value in data set [3] and in data set [4] was around 50% throughout.
Take `COC(=O)[C@@H](NC(C)=O)C(C)C` [N-acetyl-L-valine methyl ester]: the “uptake mediated by MCT1” value on human transporter MCT1 is recorded as “greatly reduced transport”.
Regarding `CCC(=O)N[C@H](C(=O)O)[C@@H](C)CC` [N-propionyl-L-isoleucine], at human transporter MCT1, the “uptake mediated by MCT1” value is listed as “transported”.
`CCC(=O)N[C@H](C(=O)O)C(C)C` [N-propionyl-L-valine]: the “uptake mediated by MCT1” value at human transporter MCT1 is on record as “transported”.

B1: monocarboxylate transporter (MCT1) (Homo sapiens) (protein)
chain: T1 sequence (P53985 1-500)
Take B1: the Km in data set [5] turned out to be 1000 µM.
